One molecule from paper PMC4779441 (International journal of peptide research and therapeutics, 2015) can be followed below.

One may read the EC50 as the concentration at which the effect is half-maximal.

The test system of this assay is HCT-116 cells. Kind of assay: In vitro cells' growth inhibition assay. Particulars: Homo sapiens, HCT-116, 48 h, read-out: EC50 [µM] HCT-116.

With `CC(=O)O[C@@]12CO[C@@H]1C[C@H](O)[C@@]1(C)C(=O)[C@H](O)C3=C(C)[C@@H](OC(=O)[C@H](O)[C@@H](NC(=O)OC(C)(C)C)c4ccccc4)C[C@@](O)([C@@H](OC(=O)c4ccccc4)[C@H]21)C3(C)C` [DTX, Docetaxel], the EC50 is 74.5 ± 3.7 µM.
